Key:
Assay in all cases: biochemical
Conditions in all cases: read-out: % inhibition mean (Z'Lyte)
CDK5/p25 = CDK5/p25 (Homo sapiens, UniProt Q00535)
AMPK (A2/B1/G3) = AMPK (A2/B1/G3) (Homo sapiens, UniProt P54646)
CLK2 = CLK2 (Homo sapiens, UniProt P49760)
RPS6KA4 (MSK2) = RPS6KA4 (MSK2) (Homo sapiens, UniProt O75676)
BMX = BMX (Homo sapiens, UniProt P51813)
PDGFRB (PDGFR beta) = PDGFRB (PDGFR beta) (Homo sapiens, UniProt P09619)
STK22B (TSSK2) = STK22B (TSSK2) (Homo sapiens, UniProt Q96PF2)
JAK2 JH1 JH2 = JAK2 JH1 JH2 (Homo sapiens, UniProt O60674)
Chain of JAK2 JH1 JH2 (O60674 whole entry): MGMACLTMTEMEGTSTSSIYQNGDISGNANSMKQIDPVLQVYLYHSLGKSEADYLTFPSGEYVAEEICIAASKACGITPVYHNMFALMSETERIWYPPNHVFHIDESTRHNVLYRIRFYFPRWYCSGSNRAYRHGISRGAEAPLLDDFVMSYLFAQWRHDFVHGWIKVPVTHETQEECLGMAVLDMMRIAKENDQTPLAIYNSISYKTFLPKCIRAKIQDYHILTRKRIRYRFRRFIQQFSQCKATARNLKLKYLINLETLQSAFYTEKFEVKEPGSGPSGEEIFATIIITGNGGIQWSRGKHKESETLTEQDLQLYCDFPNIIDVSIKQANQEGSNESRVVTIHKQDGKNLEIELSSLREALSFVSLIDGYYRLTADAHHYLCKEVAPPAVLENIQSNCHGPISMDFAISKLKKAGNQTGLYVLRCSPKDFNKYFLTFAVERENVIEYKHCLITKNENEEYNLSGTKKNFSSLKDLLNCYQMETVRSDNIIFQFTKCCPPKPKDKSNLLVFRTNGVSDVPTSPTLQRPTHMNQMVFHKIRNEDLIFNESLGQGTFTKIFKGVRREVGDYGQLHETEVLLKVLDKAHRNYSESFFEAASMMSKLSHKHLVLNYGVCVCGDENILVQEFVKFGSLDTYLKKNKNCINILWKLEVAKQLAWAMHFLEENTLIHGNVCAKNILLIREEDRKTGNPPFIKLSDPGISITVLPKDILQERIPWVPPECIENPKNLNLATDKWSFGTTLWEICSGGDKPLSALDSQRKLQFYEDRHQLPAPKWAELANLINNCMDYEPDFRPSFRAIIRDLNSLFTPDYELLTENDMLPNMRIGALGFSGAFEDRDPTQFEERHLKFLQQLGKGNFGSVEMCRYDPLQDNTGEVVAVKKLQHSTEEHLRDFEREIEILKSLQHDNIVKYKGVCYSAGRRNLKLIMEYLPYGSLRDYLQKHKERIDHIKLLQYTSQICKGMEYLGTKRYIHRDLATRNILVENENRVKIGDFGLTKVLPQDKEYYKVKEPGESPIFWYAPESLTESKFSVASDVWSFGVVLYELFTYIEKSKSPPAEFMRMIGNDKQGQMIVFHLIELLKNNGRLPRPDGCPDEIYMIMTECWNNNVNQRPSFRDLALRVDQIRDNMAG

ABL2 (Arg) = ABL2 (Arg) (Homo sapiens, UniProt P42684)
CAMK4 (CaMKIV) = CAMK4 (CaMKIV) (Homo sapiens, UniProt Q16566)
Chain of CAMK4 (CaMKIV) (Q16566 whole entry): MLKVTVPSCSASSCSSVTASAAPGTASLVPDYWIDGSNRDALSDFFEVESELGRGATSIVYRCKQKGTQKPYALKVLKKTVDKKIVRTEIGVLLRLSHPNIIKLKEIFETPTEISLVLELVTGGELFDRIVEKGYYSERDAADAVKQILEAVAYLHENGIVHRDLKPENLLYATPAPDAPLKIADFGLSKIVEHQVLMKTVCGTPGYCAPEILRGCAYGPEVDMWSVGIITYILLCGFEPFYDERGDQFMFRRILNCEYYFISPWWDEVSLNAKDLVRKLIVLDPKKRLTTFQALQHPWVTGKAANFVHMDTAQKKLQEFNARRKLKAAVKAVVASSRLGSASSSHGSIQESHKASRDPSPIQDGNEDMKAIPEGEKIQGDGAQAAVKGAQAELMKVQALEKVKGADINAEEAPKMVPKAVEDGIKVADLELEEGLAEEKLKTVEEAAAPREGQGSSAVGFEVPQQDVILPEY

AMPK A1/B1/G1 = AMPK A1/B1/G1 (Homo sapiens, UniProt Q13131)
CDK18/cyclin Y = CDK18/cyclin Y (Homo sapiens, UniProt Q07002)
Chain of CDK18/cyclin Y (Q07002 whole entry): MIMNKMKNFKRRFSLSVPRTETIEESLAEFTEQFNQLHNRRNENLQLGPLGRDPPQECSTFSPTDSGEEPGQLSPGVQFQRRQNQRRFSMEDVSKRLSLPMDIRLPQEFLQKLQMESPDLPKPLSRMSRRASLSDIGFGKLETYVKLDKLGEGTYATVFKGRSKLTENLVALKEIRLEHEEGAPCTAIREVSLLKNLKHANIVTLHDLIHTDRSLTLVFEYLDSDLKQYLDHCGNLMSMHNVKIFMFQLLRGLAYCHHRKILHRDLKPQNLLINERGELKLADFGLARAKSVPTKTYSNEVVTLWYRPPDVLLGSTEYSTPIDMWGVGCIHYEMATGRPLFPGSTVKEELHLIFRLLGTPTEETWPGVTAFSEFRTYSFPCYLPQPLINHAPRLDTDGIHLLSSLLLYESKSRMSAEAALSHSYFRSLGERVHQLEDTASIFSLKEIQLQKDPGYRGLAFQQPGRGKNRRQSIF
Chain of CDK18/cyclin Y (Q8ND76 whole entry partner): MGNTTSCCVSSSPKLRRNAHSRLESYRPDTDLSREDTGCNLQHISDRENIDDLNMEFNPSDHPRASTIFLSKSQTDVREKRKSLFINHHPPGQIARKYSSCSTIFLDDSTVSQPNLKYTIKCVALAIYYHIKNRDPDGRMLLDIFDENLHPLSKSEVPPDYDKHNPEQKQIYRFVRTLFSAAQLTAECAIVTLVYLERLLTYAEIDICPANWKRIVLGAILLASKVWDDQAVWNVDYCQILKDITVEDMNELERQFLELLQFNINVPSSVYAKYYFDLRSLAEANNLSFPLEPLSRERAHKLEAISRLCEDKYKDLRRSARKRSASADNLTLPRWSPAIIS

CDC42 BPG (MRCKG) = CDC42 BPG (MRCKG) (Homo sapiens, UniProt Q6DT37)
Chain of CDC42 BPG (MRCKG) (Q6DT37 whole entry): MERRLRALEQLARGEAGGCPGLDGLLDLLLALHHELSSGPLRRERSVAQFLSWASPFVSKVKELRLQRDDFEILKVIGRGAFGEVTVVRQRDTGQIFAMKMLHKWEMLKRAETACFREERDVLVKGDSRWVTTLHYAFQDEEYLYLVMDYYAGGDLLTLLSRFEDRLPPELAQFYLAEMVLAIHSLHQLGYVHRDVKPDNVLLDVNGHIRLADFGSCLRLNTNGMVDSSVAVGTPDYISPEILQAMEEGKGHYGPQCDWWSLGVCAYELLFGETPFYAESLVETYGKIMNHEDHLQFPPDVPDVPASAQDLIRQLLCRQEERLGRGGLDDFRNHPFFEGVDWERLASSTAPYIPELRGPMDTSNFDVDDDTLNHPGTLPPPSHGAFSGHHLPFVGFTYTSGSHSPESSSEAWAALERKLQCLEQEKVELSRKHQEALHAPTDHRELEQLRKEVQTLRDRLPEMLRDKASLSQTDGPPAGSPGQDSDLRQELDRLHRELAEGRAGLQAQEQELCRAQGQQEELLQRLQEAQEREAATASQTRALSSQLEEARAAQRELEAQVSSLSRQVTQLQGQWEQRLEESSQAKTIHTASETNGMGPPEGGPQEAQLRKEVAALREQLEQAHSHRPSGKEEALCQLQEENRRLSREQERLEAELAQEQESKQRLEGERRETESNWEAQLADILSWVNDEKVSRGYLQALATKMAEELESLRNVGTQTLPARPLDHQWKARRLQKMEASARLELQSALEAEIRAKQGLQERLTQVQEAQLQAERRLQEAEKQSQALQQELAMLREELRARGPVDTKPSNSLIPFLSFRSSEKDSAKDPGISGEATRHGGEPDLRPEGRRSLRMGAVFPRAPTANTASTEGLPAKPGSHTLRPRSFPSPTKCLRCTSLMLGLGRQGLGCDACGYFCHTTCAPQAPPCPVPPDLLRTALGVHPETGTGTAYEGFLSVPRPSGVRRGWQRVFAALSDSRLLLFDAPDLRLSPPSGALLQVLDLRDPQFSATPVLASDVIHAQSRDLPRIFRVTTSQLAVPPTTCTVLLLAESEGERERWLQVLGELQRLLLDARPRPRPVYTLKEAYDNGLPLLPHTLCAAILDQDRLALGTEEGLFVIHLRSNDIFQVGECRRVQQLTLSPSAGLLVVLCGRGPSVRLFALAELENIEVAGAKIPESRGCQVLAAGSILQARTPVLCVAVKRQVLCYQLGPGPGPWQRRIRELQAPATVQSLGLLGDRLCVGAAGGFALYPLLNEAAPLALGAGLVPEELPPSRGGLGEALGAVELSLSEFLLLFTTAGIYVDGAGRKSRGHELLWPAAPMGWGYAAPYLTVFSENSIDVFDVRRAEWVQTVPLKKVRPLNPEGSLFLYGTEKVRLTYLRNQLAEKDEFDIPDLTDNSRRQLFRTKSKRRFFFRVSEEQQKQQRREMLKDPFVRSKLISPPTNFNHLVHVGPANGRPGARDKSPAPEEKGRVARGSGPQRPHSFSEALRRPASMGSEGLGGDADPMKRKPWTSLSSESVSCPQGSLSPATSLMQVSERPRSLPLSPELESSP

KIT V559D V654A = KIT V559D V654A (Homo sapiens, UniProt P10721, V559D/V654A)
BRSK1 (SAD1) = BRSK1 (SAD1) (Homo sapiens, UniProt Q8TDC3)
CDK2/cyclin A = CDK2/cyclin A (Homo sapiens, UniProt P24941)
RET A883F = RET A883F (Homo sapiens, UniProt P07949, A883F)
Chain of RET A883F (P07949 whole entry A883F): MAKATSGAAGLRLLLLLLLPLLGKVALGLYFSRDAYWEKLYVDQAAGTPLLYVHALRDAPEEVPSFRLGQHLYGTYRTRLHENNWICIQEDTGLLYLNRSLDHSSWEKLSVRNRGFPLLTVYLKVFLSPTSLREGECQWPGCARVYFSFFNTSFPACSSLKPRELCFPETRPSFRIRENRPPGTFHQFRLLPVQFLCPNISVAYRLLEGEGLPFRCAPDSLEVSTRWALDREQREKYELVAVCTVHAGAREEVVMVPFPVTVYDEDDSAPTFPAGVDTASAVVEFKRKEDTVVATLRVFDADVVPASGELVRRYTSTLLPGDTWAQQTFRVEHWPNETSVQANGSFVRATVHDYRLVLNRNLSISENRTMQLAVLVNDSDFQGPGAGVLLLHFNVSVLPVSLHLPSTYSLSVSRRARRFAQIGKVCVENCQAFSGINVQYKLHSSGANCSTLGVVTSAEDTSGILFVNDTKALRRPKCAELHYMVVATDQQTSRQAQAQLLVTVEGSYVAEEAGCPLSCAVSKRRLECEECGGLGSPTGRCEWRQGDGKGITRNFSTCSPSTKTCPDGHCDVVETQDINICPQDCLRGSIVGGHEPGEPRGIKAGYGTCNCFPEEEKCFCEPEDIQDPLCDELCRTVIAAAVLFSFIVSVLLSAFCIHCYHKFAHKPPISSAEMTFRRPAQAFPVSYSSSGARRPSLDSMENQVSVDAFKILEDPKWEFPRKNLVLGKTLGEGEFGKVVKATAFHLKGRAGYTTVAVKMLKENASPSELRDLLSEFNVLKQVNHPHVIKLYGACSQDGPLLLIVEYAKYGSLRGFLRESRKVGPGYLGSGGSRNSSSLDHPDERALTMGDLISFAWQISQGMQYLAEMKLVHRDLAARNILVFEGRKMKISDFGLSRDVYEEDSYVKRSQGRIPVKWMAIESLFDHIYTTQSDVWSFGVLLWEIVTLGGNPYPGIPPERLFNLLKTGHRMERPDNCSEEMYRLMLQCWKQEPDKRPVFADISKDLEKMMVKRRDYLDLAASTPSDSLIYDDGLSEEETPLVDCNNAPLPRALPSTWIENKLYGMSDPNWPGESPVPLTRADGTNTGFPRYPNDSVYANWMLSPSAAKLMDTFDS

MARK2 = MARK2 (Homo sapiens, UniProt Q7KZI7)
SYK = SYK (Homo sapiens, UniProt P43405)
KDR (VEGFR2) = KDR (VEGFR2) (Homo sapiens, UniProt P35968)
ROCK2 = ROCK2 (Homo sapiens, UniProt O75116)
NEK9 = NEK9 (Homo sapiens, UniProt Q8TD19)
MAP4K2 (GCK) = MAP4K2 (GCK) (Homo sapiens, UniProt Q12851)
HIPK1 (Myak) = HIPK1 (Myak) (Homo sapiens, UniProt Q86Z02)
ADRBK1 (GRK2) = ADRBK1 (GRK2) (Homo sapiens, UniProt P25098)
MARK1 (MARK) = MARK1 (MARK) (Homo sapiens, UniProt Q9P0L2)
SRPK1 = SRPK1 (Homo sapiens, UniProt Q96SB4)
PRKD2 (PKD2) = PRKD2 (PKD2) (Homo sapiens, UniProt Q9BZL6)

Compound `COc1ccc2nc3cc(Cl)ccc3c(Nc3cc(CN4CCCC4)c(O)c(CN4CCCC4)c3)c2n1` [Pyronaridine, 4-[(7-Chloro-2-methoxybenzo[b][1,5]naphthyridin-10-yl)amino]-2,6-bis(1-pyrrolidinylmethyl)phenol phosphate (1:4)] has an inhibition at 1 µM (CDK5/p25) of 0%, an inhibition at 1 µM (AMPK (A2/B1/G3)) of 2% and an inhibition at 1 µM (CLK2) of 3%. It also gave an inhibition at 1 µM (RPS6KA4 (MSK2)) of -4%, an inhibition at 1 µM (BMX) of 11% and an inhibition at 1 µM (PDGFRB (PDGFR beta)) of 0%. For the same compound, the inhibition at 1 µM (STK22B (TSSK2)) was -2%, the inhibition at 1 µM (JAK2 JH1 JH2) was -3% and the inhibition at 1 µM (ABL2 (Arg)) was 2%. It also gave an inhibition at 1 µM (CAMK4 (CaMKIV)) of -5%, an inhibition at 1 µM (AMPK A1/B1/G1) of 5% and an inhibition at 1 µM (CDK18/cyclin Y) of 1%. It also gave an inhibition at 1 µM (CDC42 BPG (MRCKG)) of 1%, an inhibition at 1 µM (KIT V559D V654A) of -1% and an inhibition at 1 µM (BRSK1 (SAD1)) of 2%. For the same compound, the inhibition at 1 µM (CDK2/cyclin A) was 0%, the inhibition at 1 µM (RET A883F) was -1% and the inhibition at 1 µM (MARK2) was 6%. It also gave an inhibition at 1 µM (SYK) of 1%, an inhibition at 1 µM (KDR (VEGFR2)) of 7% and an inhibition at 1 µM (ROCK2) of 1%. It also gave an inhibition at 1 µM (NEK9) of 0%, an inhibition at 1 µM (MAP4K2 (GCK)) of 5% and an inhibition at 1 µM (HIPK1 (Myak)) of 1%. For the same compound, the inhibition at 1 µM (ADRBK1 (GRK2)) was -3%, the inhibition at 1 µM (MARK1 (MARK)) was -10% and the inhibition at 1 µM (SRPK1) was 1%. It also gave an inhibition at 1 µM (PRKD2 (PKD2)) of -4%.

Reference: paper doi:10.1101/2021.09.30.462449v1 (biorxiv, 2021)
